Measurements reported in patent publication US20230141198A1, “PYRAZOL[…]” (THE KITASATO INSTITUTE, priority 2019, published 2023).

Columns and labels:
Format in all cases: cell-based
human opioid δ receptor = biological target: T1, human opioid δ receptor (Homo sapiens, UniProt P41143); assay: Opioid receptor function test (agonist activity, Lance Ultra cAMP kit), δ receptor; conditions: for Emax: maximum reaction relative to control drug SNC 80 taken as 100%
T1 construct: host or cells: CHO cells
From the text: (§1) Opioid Receptor Function Test
(§2) Functional activity of the compound provided by the present invention on μ, δ, and κ opioid receptors was examined.
(§3) Method: Using a Lance Ultra cAMP kit (Perkin Elmer), the functional activity was examined by a predetermined method. In evaluation of agonist activity, CHO cells expressing each of human opioid receptors (δ, μ, and κ: accession numbers and catalog numbers are described below) were reacted with a test compound in an assay buffer (1× HBSS, […], pH 7.4, […] isobutylmethylxanthine (IBMX), 7.5% BSA) in the presence of 10 μM forskolin for 30 minutes. Subsequently, a cAMP detection reagent in the kit was added. One hour later, time-resolved fluorescence measurement was performed using an EnVision plate reader (Perkin Elmer). The test compound and each control drug (δ: SNC 80, μ: DAMGO, κ: U-69593) were evaluated in a concentration range of 10^−12 to 10^−5 M. A dose reaction curve of the test compound was determined from a fluorescence value at 665 nm, and an EC50 value and an Emax value were calculated. The Emax value was determined as a ratio of a maximum reaction of the test compound when a maximum reaction of each control drug was taken as 100%.

human opioid μ receptor = biological target: T2, human opioid μ receptor (Homo sapiens, UniProt P35372); assay: Opioid receptor function test (agonist activity, Lance Ultra cAMP kit), μ receptor; conditions: for Emax: maximum reaction relative to control drug DAMGO taken as 100%
T2 construct: host or cells: CHO cells
From the text: as §1, §2, §3

human opioid κ receptor = biological target: T3, human opioid κ receptor (Homo sapiens, UniProt P41145); assay: Opioid receptor function test (agonist activity, Lance Ultra cAMP kit), κ receptor; conditions: for Emax: maximum reaction relative to control drug U-69593 taken as 100%
T3 construct: host or cells: CHO cells
From the text: as §1, §2, §3

hERG channel = biological target: T4, hERG channel (Homo sapiens, UniProt Q12809); assay: hERG potassium channel inhibition test (auto patch clamp); conditions: hERG channel stably expressing CHO cells, perfused at room temperature for 5 minutes
T4 construct: host or cells: CHO cells
Procedure: Ether-a-Go-Go Related Gene (hERG) Potassium Channel Inhibition Test
A test was performed using hERG channel stably expressing CHO cells (purchased from Channelopathy Foundation) with a Port-a-Patch auto patch clamping device (Nanion Technologies). A membrane potential of the cells was held at −80 mV, and then a test pulse of −50 mV for 1.5 seconds was applied at a frequency of once every 10 seconds following a depolarization pulse of +20 mV for 1.5 seconds. An hERG current was confirmed by a tail current induced by the test pulse. A test compound was dissolved in an extracellular solution ([…] NaCl, 4 mM KCl, 1.82 mM CaCl2, 1 mM MgCl2, 105 mM D(+)-glucose, 10 mM HEPES, pH 7.4) and perfused at room temperature for 5 minutes. An inhibition ratio was determined from a ratio of a tail current value after application of the compound when a maximum tail current value before application of the compound was taken as 100%. For the test, cells having a peak current value of the tail current of 300 pA or more, tail current run-down of less than 10% of a current initial value, and a leak current of less than 200 pA were used.

T1 sequence (P41143 whole entry): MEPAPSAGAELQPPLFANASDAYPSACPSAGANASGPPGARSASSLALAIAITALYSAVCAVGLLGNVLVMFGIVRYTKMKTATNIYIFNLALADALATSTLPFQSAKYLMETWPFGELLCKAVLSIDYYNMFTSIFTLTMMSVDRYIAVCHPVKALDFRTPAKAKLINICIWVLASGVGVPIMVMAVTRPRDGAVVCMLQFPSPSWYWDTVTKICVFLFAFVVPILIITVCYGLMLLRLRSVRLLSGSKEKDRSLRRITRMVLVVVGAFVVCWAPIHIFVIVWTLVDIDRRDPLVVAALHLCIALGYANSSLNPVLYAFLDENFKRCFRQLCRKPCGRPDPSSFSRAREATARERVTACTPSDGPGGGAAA
T2 sequence (P35372 whole entry): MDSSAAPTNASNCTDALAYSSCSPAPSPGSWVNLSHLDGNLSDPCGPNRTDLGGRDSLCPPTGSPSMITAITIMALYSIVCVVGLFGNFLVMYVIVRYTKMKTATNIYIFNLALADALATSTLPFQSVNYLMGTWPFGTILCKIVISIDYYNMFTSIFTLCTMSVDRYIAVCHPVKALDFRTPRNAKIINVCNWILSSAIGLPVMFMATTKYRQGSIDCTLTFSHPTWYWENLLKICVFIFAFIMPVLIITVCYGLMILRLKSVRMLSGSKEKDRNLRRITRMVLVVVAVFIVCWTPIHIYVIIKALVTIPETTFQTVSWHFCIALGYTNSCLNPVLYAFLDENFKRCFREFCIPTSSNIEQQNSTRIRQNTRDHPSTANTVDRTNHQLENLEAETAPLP
T4 sequence (Q12809 whole entry, the tested form may be a part): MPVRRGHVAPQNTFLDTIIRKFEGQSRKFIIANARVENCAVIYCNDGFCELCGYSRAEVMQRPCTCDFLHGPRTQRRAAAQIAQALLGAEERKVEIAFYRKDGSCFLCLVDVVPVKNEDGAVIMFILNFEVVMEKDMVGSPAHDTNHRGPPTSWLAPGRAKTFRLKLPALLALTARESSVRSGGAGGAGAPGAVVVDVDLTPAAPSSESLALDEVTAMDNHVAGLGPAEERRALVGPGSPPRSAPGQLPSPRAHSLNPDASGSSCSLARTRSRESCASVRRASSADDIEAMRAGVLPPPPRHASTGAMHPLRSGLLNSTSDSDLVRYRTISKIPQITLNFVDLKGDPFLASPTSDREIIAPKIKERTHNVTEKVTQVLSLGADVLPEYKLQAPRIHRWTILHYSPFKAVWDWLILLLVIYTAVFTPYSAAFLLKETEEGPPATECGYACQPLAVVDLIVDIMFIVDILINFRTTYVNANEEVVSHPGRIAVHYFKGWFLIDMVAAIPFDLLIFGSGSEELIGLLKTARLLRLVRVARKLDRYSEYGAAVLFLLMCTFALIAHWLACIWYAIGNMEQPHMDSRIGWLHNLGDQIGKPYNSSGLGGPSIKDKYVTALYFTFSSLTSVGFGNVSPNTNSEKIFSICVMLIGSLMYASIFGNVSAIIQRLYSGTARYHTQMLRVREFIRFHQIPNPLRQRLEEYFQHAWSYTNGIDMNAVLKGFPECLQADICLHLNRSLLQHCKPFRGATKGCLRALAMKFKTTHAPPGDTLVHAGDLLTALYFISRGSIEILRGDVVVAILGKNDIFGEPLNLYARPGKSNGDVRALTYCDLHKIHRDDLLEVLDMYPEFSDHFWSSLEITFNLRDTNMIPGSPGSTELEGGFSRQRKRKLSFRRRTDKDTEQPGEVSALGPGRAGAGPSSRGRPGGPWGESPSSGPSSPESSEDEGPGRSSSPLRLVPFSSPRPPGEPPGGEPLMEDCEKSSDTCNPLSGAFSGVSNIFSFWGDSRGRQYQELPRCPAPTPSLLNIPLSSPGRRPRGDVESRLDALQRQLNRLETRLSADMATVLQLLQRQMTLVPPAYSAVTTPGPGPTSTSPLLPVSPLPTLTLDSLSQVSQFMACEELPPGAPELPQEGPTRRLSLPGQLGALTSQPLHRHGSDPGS
T3 sequence (P41145 whole entry): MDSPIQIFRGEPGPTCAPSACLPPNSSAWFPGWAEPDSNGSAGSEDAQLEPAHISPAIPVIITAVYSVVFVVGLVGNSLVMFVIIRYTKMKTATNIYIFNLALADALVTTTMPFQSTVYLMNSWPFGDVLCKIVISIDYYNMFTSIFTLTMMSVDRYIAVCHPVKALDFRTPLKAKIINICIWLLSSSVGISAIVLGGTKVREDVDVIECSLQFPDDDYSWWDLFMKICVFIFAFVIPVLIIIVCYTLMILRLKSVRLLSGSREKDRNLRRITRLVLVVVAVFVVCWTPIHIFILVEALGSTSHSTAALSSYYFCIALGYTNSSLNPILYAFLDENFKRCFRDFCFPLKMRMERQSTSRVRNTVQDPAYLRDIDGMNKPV

Compound: Cc1c2c(nn1C(C)C)C[C@]13CCN(CC4CC4)[C@H](Cc4ccc(O)cc41)[C@]3(O)C2 [Compound 22, (6R,6aS,11aR)-14-(cyclopropylmethyl)-9-isopropyl methyl-5,6,9,11-tetrahydro-6,11a-(epiminoethano)naphtho[2,1-f]indazole-2,6a(7H)-diol]
- EC50 (human opioid δ receptor): 0.18 nM
- Emax (human opioid δ receptor): 107%
- EC50 (human opioid μ receptor): 15 nM
- Emax (human opioid μ receptor): 15%
- EC50 (human opioid κ receptor): 13 nM
- Emax (human opioid κ receptor): 35%
- hERG inhibitory effect (tail current inhibition) (hERG channel): only weak inhibitory effect

Compound: Cc1nn(C(C)C)c2c1C[C@@]1(O)[C@H]3Cc4ccc(O)cc4[C@@]1(CCN3CC1CC1)C2 [Compound 23, (6R,6aS,11aR)-14-(cyclopropylmethyl)-10-isopropyl-8-methyl-5,6,10,11-tetrahydro-6,11a-(epiminoethano)naphtho[2,1-f]indazole-2,6a(7H)-diol]
- EC50 (human opioid δ receptor): 0.48 nM
- Emax (human opioid δ receptor): 95%
- hERG inhibitory effect (tail current inhibition) (hERG channel): only weak inhibitory effect

Compound: Cc1c2c(nn1C(C)(C)C)C[C@]13CCN(CC4CC4)[C@H](Cc4ccc(O)cc41)[C@]3(O)C2 [Compound 24, (6R,6aS,11aR)-9-(tert-butyl)-14-(cyclopropylmethyl)-8-methyl-5,6,9,11-tetrahydro-6,11a-(epiminoethano)naphtho[2,1-f]indazole-2,6a(7H)-diol]
- EC50 (human opioid δ receptor): 0.14 nM
- Emax (human opioid δ receptor): 108%
- EC50 (human opioid κ receptor): 17 nM
- Emax (human opioid κ receptor): 23%
- hERG inhibitory effect (tail current inhibition) (hERG channel): only weak inhibitory effect

Compound: Cc1nn(CCO)c2c1C[C@@]1(O)[C@H]3Cc4ccc(O)cc4[C@@]1(CCN3CC1CC1)C2 [Compound 44, (6R,6aS,11aR)-14-(cyclopropylmethyl)-10-(2-hydroxyethyl)-8-methyl-5,6,10,11-tetrahydro-6,11a-(epiminoethano)naphtho[2,1-f]indazole-2,6a(7H)-diol]
- hERG inhibitory effect (tail current inhibition) (hERG channel): only weak inhibitory effect

Compound: Cc1c2c(nn1C1CCCC1)C[C@]13CCN(CC4CC4)[C@H](Cc4ccc(O)cc41)[C@]3(O)C2 [Compound 87, (6R,6aS,11aR)-9-cyclopentyl-14-(cyclopropylmethyl)-8-methyl-5,6,9,11-tetrahydro-6,11a-(epiminoethano)naphtho[2,1-f]indazole-2,6a(7H)-diol]
- EC50 (human opioid δ receptor): 0.11 nM
- Emax (human opioid δ receptor): 106%
- EC50 (human opioid μ receptor): 28 nM
- Emax (human opioid μ receptor): 24%
- EC50 (human opioid κ receptor): 59 nM
- Emax (human opioid κ receptor): 30%

Compound: Cc1nn(C2CCN(C)CC2)c2c1C[C@@]1(O)[C@H]3Cc4ccc(O)cc4[C@@]1(CCN3CC1CC1)C2 [Compound 91, (6R,6aS,11aR)-14-(cyclopropylmethyl)-8-methyl-10-(1-methylpiperidin-4-yl)-5,6,10,11-tetrahydro-6,11a-(epiminoethano)naphtho[2,1-f]indazole-2,6a(7H)-diol]
- EC50 (human opioid δ receptor): 0.23 nM
- Emax (human opioid δ receptor): 112%
- EC50 (human opioid μ receptor): 32 nM
- Emax (human opioid μ receptor): 12%
- EC50 (human opioid κ receptor): 15 nM
- Emax (human opioid κ receptor): 25%

Compound: Cc1c2c(nn1C1CCN(C)CC1)C[C@]13CCN(CC4CC4)[C@H](Cc4ccc(O)cc41)[C@]3(O)C2 [Compound 92, (6R,6aS,11aR)-14-(cyclopropylmethyl)-8-methyl-9-(1-methylpiperidin-4-yl)-5,6,9,11-tetrahydro-6,11a-(epiminoethano)naphtho[2,1-f]indazole-2,6a(7H)-diol]
- EC50 (human opioid δ receptor): 0.51 nM
- Emax (human opioid δ receptor): 103%
- EC50 (human opioid μ receptor): 52 nM
- Emax (human opioid μ receptor): 17%
- EC50 (human opioid κ receptor): 16 nM
- Emax (human opioid κ receptor): 20%
